Legend:
atrium = test: Effects on the atrial effective refractory period (S1-S2 extrastimulus technique during bilateral vagal nerve stimulation) in anesthetized beagles; assay type: in vivo; settings: intravenous, from 5 minutes after administration, basic cycle length 300 msec
Method: Effects on the Effective Refractory Period
Beagles were anesthetized with pentobarbital sodium and thoracotomy was done along the median line under a respirator and the incision was made on the pericardium to expose the heart. An electrocardiogram (ECG) was recorded using bipolar electrodes attached to the surface of the right atrial free wall, right atrial auricle, and right ventricular free wall. The vagal nerves were stimulated using an electrostimulation device with Nichrome wires inserted into the vagal nerves in the neck bilaterally. The conditions for electrostimulation to the vagal nerves were set such that the RR intervals on ECG were prolonged by about 100 msec compared with those before the stimulation was started.
Atrial and ventricular effective refractory periods were determined by S1-S2 extrastimulus technique at basic cycle length of 300 msec during bilateral vagal nerve stimulation, using programmable electric stimulator. A train of 10 basic stimuli (S1) was followed by a premature extrastimulus (S2) at 2 times diastolic threshold.
For evaluation of drug effects, the atrial and ventricular effective refractory periods were determined before drug administration, then respective compound was administrated intravenously at the dose of 0.3 mg/kg or 0.6 mg/kg, and the atrial and ventricular effective refractory periods were determined from 5 minutes after the administration.
The results were shown as the prolongation time on the atrial and ventricular effective refractory periods, i.e. [effective refractory period after drug administration]−[effective refractory period before drug administration] (msec).

| Structure (SMILES) | melting point | Atrial Refractory Period (prolongation time on the atrial effective refractory period) (atrium; 0.6 mg/kg) | Atrial Refractory Period (prolongation time on the atrial effective refractory period) (atrium; 0.3 mg/kg) |
| --- | --- | --- | --- |
| Cc1cc(C)c2cc3c(cc2n1)C(NCCc1ccccc1)C(O)C(C)(C)O3 (racemic) [Synthesis Example 2, (±)-trans-2,2,7,9-Tetramethyl-4-[(2-phenylethyl)amino]-3,4-dihydro-2H-pyrano[2,3-g]quinolin-3-ol] | 144 to 147 °C | 21 ms | – |
| Cc1cc(Cl)nc2cc3c(cc12)OC(C)(C)C(O)C3NCCc1ccccc1.O=C(O)/C=C\C(=O)O (racemic) [Synthesis Example 6, (±)-trans-7-Chloro-2,2,9-trimethyl-4-[(2-phenylethyl)amino]-3,4-dihydro-2H-pyrano[2,3-g]quinolin-3-ol 1 maleate] | 221 to 226 °C (dec.) | 20 ms | – |
| Cc1cc(C#N)nc2cc3c(cc12)OC(C)(C)C(O)C3NCCc1ccccc1.O=C(O)/C=C\C(=O)O (racemic) [Synthesis Example 7, (±)-trans-3-Hydroxy-2,2,9-trimethyl-4-[(2-phenylethyl)amino]-3,4-dihydro-2H-pyrano[2,3-g]quinoline-7-carbonitrile 1 maleate] | 218 to 220 °C (dec.) | 25 ms | – |
| CC1(C)Oc2ccc3ncccc3c2C(NCCc2ccccc2)C1O (racemic) [Synthesis Example 8, (±)-trans-3,3-Dimethyl-1-[(2-phenylethyl)amino]-2,3-dihydro-1H-pyrano[3,2-f]quinolin-2-ol] | 180 to 182 °C | 23 ms | – |
| Cc1cc(Cl)[n+]([O-])c2cc3c(cc12)OC(C)(C)[C@H](O)[C@H]3NCCc1ccccc1.Cl (relative stereo) | 174 to 179 °C (dec.) | – | – |
| Cc1cc(Cl)[n+]([O-])c2cc3c(cc12)OC(C)(C)[C@H](O)[C@H]3NCCc1ccc(F)cc1.Cl (relative stereo) | 193 to 198 °C (dec.) | – | – |
| Cc1ccc2cc3c(cc2n1)[C@H](NCCc1ccccc1)[C@@H](O)C(C)(C)O3.O=C(O)/C=C\C(=O)O (relative stereo) [Synthesis Example 13, (3R*,4S*)-2,2,7-trimethyl-4-[(2-phenylethyl)amino]-3,4-dihydro-2H-pyrano[2,3-g]quinolin-3-ol 1 maleate] | 214 to 217 °C (dec.) | – | – |
| Cc1cc(C(N)=O)nc2cc3c(cc12)OC(C)(C)[C@H](O)[C@H]3NCCc1ccccc1 (relative stereo) [Synthesis Example 15, (3R*,4S*)-3-hydroxy-2,2,9-trimethyl-4-[(2-phenylethyl)amino]-3,4-dihydro-2H-pyrano[2,3-g]quinoline-7-carboxamide] | 168 to 169 °C | – | – |
| Cc1cc(Cl)nc2cc3c(cc12)OC(C)(C)[C@@H](O)[C@@H]3NCCc1ccccc1.O=C(O)/C=C\C(=O)O (relative stereo) [Synthesis Example 50, (3S*,4R*)-7-chloro-2,2,9-trimethyl-4-[(2-phenylethyl)amino]-3,4-dihydro-2H-pyrano[2,3-g]quinolin-3-ol 1 maleate] | 240 to 242 °C | – | – |
| CC1(C)Oc2ccc3ncccc3c2C(NCCc2ccccc2)C1O (stereo not drawn) [Synthesis Example 17, (1R*,2R*)-3,3-dimethyl-1-[(2-phenylethyl)amino]-2,3-dihydro-1H-pyrano[3,2-f]quinolin-2-ol] | 170 to 171 °C | – | – |

Now from value to molecule, other results behind:

| melting point | Structure (SMILES) | Atrial Refractory Period (prolongation time on the atrial effective refractory period) (atrium; 0.6 mg/kg) | Atrial Refractory Period (prolongation time on the atrial effective refractory period) (atrium; 0.3 mg/kg) |
| --- | --- | --- | --- |
| 215 to 216 °C (dec.) | Cc1cc(C)c2cc3c(cc2n1)[C@@H](NCCc1ccccc1)[C@H](O)C(C)(C)O3.O=C(O)/C=C\C(=O)O (relative stereo) [Synthesis Example 51, (3R*,4R*)-2,2,7,9-tetramethyl-4-[(2-phenethyl)amino]-3,4-dihydro-2H-pyrano[2,3-g]quinolin-3-ol 1 maleate] | – | – |
| 294 to 295 °C (dec.) | Cc1cc(Cl)nc2cc3c(cc12)OC(C)(C)[C@H](O)[C@H]3NCCC1CCCCC1.Cl (relative stereo) [Synthesis Example 53, (3R*,4S*)-7-chloro-2,2,9-trimethyl-4-[(2-cyclohexylethyl)amino]-3,4-dihydro-2H-pyrano[2,3-g]quinolin-3-ol hydrochloride] | – | 30 ms |
| 209 to 212 °C (dec.) | CCCCCN[C@H]1c2cc3nccnc3cc2OC(C)(C)[C@@H]1O.Cl (relative stereo) [Synthesis Example 63, (3R*,4S*)-2,2-dimethyl-4-pentylamino-3,4-dihydro-2H-pyrano[2,3-g]quinoxalin-3-ol hydrochloride] | – | 23 ms |
| 189 to 192 °C (dec.) | Cc1cnc2cc3c(cc2n1)OC(C)(C)[C@H](O)[C@H]3NCCc1ccccc1.O=C(O)/C=C\C(=O)O (relative stereo) [Synthesis Example 68, (3R*,4S*)-2,2,8-trimethyl-4-[(2-phenylethyl)amino]-3,4-dihydro-2H-pyrano[2,3-g]quinoxalin-3-ol 1 maleate] | – | – |
| 258 to 259 °C (dec.) | CC1(C)Oc2cc3nccnc3cc2[C@H](NCCC2CCCCC2)[C@H]1O.Cl (relative stereo) [Synthesis Example 69, (3R*,4S*)-4-[(2-cyclohexylethyl)amino)]-2,2-dimethyl-3,4-dihydro-2H-pyrano[2,3-g]quinoxalin-3-ol hydrochloride] | – | 37 ms |
| 147 to 152 °C | Cc1cc(CO)nc2cc3c(cc12)OC(C)(C)[C@H](O)[C@H]3NCCc1ccc(F)cc1 (relative stereo) [Synthesis Example 76, (3R*,4S*)-4-{[2-(4-fluorophenyl)ethyl]amino}-7-hydroxymethyl-2,2,9-trimethyl-3,4-dihydro-2H-pyrano[2,3-g]quinolin-3-ol] | – | – |
| 187 to 192 °C (dec.) | CC1(C)Oc2cc3cccnc3cc2[C@H](NCCc2ccccc2)[C@H]1O.O=C(O)/C=C\C(=O)O (relative stereo) [Synthesis Example 77, (3R*,4S*)-2,2-dimethyl-4-[(2-phenylethyl)amino]-3,4-dihydro-2H-pyrano[2,3-g]quinolin-3-ol 1 maleate] | – | 25 ms |
| 136 to 140 °C | Cc1cc(CN)nc2cc3c(cc12)OC(C)(C)[C@H](O)[C@H]3NCCc1ccccc1.O=C(O)/C=C\C(=O)O (relative stereo) [Synthesis Example 83, (3R*,4S*)-7-aminomethyl-2,2,9-trimethyl-4-[(2-phenylethyl)amino]-3,4-dihydro-2H-pyrano[2,3-g]quinolin-3-ol 2 maleate] | – | – |
| 163 to 169 °C (dec.) | CC1(C)Oc2cc3c(CO)ccnc3cc2[C@H](NCCc2ccccc2)[C@H]1O.O=C(O)/C=C\C(=O)O (relative stereo) [Synthesis Example 84, (3R*,4S*)-9-hydroxymethyl-2,2-dimethyl-4-[(2-phenylethyl)amino)]-3,4-dihydro-2H-pyrano[2,3-g]quinolin-3-ol 1 maleate] | – | – |
| 184 to 188 °C (dec.) | Cc1cc(O)nc2cc3c(cc12)OC(C)(C)[C@H](O)[C@H]3NCCc1ccccc1.O=C(O)/C=C\C(=O)O (relative stereo) [Synthesis Example 85, (3R*,4S*)-2,2,9-trimethyl-4-[(2-phenylethyl)amino)]-3,4-dihydro-2H-pyrano[2,3-g]quinolin-3,7-diol 3/2 maleate] | – | – |
| 195 °C (dec.) | CC1(C)Oc2cc3c(cc2C(NCCc2ccccc2)C1O)N(Cc1ccccc1)C(=O)C3 (centres unmarked) [Synthesis Example 90, 1-Benzyl-7-hydroxy-6,6-dimethyl-8-phenetylamino-3,6,7,8-tetrahydro-1H-pyrano[2,3-f]indole-2-one] | – | – |

Reference: patent US7964623B2, “Tricyclic benzopyrane compound” (Nissan Chemical Industries Ltd., priority 2004, dated 2011)
